Measurements reported in patent US9034882B2, “Inhibitors of human immunodeficiency virus replication” (priority 2012, dated 2015).
Read-outs that look alike come from different tables or passages of the source.

Tested on: recombinant NL-Rluc virus
Assay: Inhibition of HIV replication (NL-RLuc luciferase reporter virus in MT-2 cells)
Type: cell-based
Conditions: Human immunodeficiency virus 1, MT2, 120 h

Cc1nc2cc(-c3ccc4c(c3)CCCC4)nn2c(N2CCC(C)(C)CC2)c1[C@H](OC(C)(C)C)C(=O)O [Example 33, (S)-2-(tert-Butoxy)-2-(7-(4,4-dimethylpiperidin-1-yl)-5-methyl-2-(5,6,7,8-tetrahydronaphthalen-2-yl)pyrazolo[1,5-a]pyrimidin-6-yl)acetic acid] was tested, and the EC50 (read-out: Activity) was 0.1 to 1 µM.
Cc1nc2cc(-c3cccc(-c4ccccc4)c3)nn2c(N2CCS(=O)(=O)CC2)c1[C@H](OC(C)(C)C)C(=O)O [Example 46, (S)-2-(2-([1,1′-Biphenyl]-3-yl)-7-(1,1-dioxidothiomorpholino)-5-methylpyrazolo[1,5-a]pyrimidin-6-yl)-2-(tert-butoxy)acetic acid] showed an EC50 (read-out: Activity) of 0.1 to 1 µM.
Molecule Cc1nc2cc(-c3cccc(-c4ccccc4)c3)nn2c(N2C3CCCC2COC3)c1[C@H](OC(C)(C)C)C(=O)O [Example 48, (2S)-2-(2-([1,1′-Biphenyl]-3-yl)-7-(3-oxa-9-azabicyclo[3.3.1]nonan-9-yl)-5-methylpyrazolo[1,5-a]pyrimidin-6-yl)-2-(tert-butoxy)acetic acid] has an EC50 (read-out: Activity) of over 1 µM.
Cc1nc2cc(-c3ccccc3)nn2c(N2Cc3ccccc3C2)c1C(OC(C)(C)C)C(=O)O (stereo not drawn) [Example 5, 2-(tert-butoxy)-2-(7-(isoindolin-2-yl)-5-methyl-2-phenylpyrazolo[1,5a]pyrimidin-6-yl)acetic acid] showed an EC50 (read-out: Activity) of over 1 µM.
Cc1nc2cc(-c3ccccc3)nn2c(N2CCC3(CC2)CC3)c1[C@H](OC(C)(C)C)C(=O)O [Example 30, (S)-2-(tert-butoxy)-2-(5-methyl-2-phenyl-7-(6-azaspiro[2.5]octan-6-yl)pyrazolo[1,5-a]pyrimidin-6-yl)acetic acid] showed an EC50 (read-out: Activity) of 0.1 to 1 µM.
Cc1nc2cc(-c3ccccc3)nn2c(N2CCC(C)(C)C2)c1[C@H](OC(C)(C)C)C(=O)O [Example 28, (S)-2-(tert-butoxy)-2-(7-(3,3-dimethylpyrrolidin-1-yl)-5-methyl-2-phenylpyrazolo[1,5-a]pyrimidin-6-yl)acetic acid] showed an EC50 (read-out: Activity) of 0.1 to 1 µM.
For Cc1nc2cc(-c3cccc(-c4ccccc4F)c3)nn2c(N2CCC(C)(C)CC2)c1[C@H](OC(C)(C)C)C(=O)O [Example 52, (S)-2-(tert-Butoxy)-2-(7-(4,4-dimethylpiperidin-1-yl)-2-(2′-fluoro-[1,1′-biphenyl]-3-yl)-5-methylpyrazolo[1,5-a]pyrimidin-6-yl)acetic acid], the EC50 (read-out: Activity) was under 0.1 µM and the EC50 (read-out: EC50 μM) was 0.05 µM.
For Cc1nc2nc(-c3ccccc3)nn2c(N2CC[C@H]3CCCC[C@@H]3C2)c1C(OC(C)(C)C)C(=O)O (stereo partly drawn) [Example 40, 2-(tert-Butoxy)-2-(5-methyl-7-((4aR,8aS)-octahydroisoquinolin-2(1H)-yl)-2-phenyl-[1,2,4]triazolo[1,5-a]pyrimidin-6-yl)acetic acid], the EC50 (read-out: Activity) was over 1 µM.
With Cc1nc2cc(-c3ccccc3)nn2c(N2CCC3(CCCC3)C2)c1[C@H](OC(C)(C)C)C(=O)O [Example 26, (S)-2-(tert-butoxy)-2-(5-methyl-2-phenyl-7-(2-azaspiro[4.4]nonan-2-yl)pyrazolo[1,5-a]pyrimidin-6-yl)acetic acid] the EC50 (read-out: Activity) was 0.1 to 1 µM and the EC50 (read-out: EC50 μM) was 0.3 µM.
CCC1(C)CCN(c2c([C@H](OC(C)(C)C)C(=O)O)c(C)nc3cc(-c4ccccc4)nn23)CC1 [Example 29, (S)-2-(tert-butoxy)-2-(7-(4-ethyl-4-methylpiperidin-1-yl)-5-methyl-2-phenylpyrazolo[1,5-a]pyrimidin-6-yl)acetic acid] gave an EC50 (read-out: Activity) of 0.1 to 1 µM.
For Cc1nc2cc(-c3ccccc3)nn2c(N2CCCCCC2)c1C(OC(C)(C)C)C(=O)O (stereo not drawn) [Example 6, 2(7-(azepan-1-yl)-5-methyl-2-phenylpyrazolo[1,5a]pyrimidin-6-yl)-2-(tert-butoxy)-acetic acid], the EC50 (read-out: Activity) was over 1 µM.
With Cc1nc2nc(-c3ccccc3)nn2c(N2CCC(C)(C)CC2)c1C(OC(C)(C)C)C(=O)O (stereo not drawn) [Example 37, 2-tert-Butoxy-2-(7-(4,4-dimethylpiperidin-1-yl)-5-methyl-2-phenyl-[1,2,4]triazolo[1,5-a]pyrimidin-6-yl)acetic acid] the EC50 (read-out: Activity) was 0.1 to 1 µM and the EC50 (read-out: EC50 μM) was 0.24 µM.
